Blank lines part the entries; values can stand above or below the compound they belong to.
Experiments:
[1] = below about 85°; cited from earlier work
[2] = Thermal stability of crystal forms upon heating (Table 4)
[3] = Stability and hygroscopicity of linezolid Form VI stored at 0-100% relative humidity; format: physicochemical
Method: The stability and hygroscopicity of linezolid Form VI was tested by storing it for 19 days at a relative humidity of between 0 and 100% at room temperature.

[4] = Stability of linezolid Form X stored at 0-100% relative humidity; format: physicochemical
Method: The stability of linezolid Form X was tested by storing it for 8 days at a relative humidity of between 0 and 100% at room temperature.

[5] = 19 days, room temperature, relative humidity 80%
[6] = 19 days, room temperature, relative humidity 100%
[7] = 8 days, room temperature, relative humidity 100%

SMILES: CC(=O)NC[C@H]1CN(c2ccc(N3CCOCC3)c(F)c2)C(=O)O1 [Form II]
Relative stability of the crystal form [1]: most stable form

Crystal form after heating ([2]; heating temp. 60 °C, listed as TIII): TIII
Crystal form after heating ([2]; heating temp. 130 °C): TIII
SMILES: CC(=O)NC[C@H]1CN(c2ccc(N3CCOCC3)c(F)c2)C(=O)O1 [Form TIII, (S)—N-[[3-[3-Fluoro-4-(4-morpholinyl)phenyl]-2-oxo-5-oxazo-lidinyl]methyl]-acetamide]

Thermal stability (transformation into other forms upon heating) ([2]; heating at about 60° C. to about 130° C.): thermally stable
SMILES: CC(=O)NC[C@H]1CN(c2ccc(N3CCOCC3)c(F)c2)C(=O)O1 [Form V, (S)—N-[[3-[3-Fluoro-4-(4-morpholinyl)phenyl]-2-oxo-5-oxazo-lidinyl]methyl]-acetamide]

Solvent content ([3]; 19 days, room temperature, relative humidity 0%): 0.4%
Solvent content ([3]; 19 days, room temperature, relative humidity 20%): 0.4%
Solvent content ([3]; 19 days, room temperature, relative humidity 40%): 0.4%
Solvent content ([3]; 19 days, room temperature, relative humidity 60%): 0.3%
Crystal Form [3, 5]: VI + Amorphous
Solvent content [3, 5]: 31.7%
Crystal Form [3, 6]: Amorphous
Solvent content [3, 6]: 53.2%
Solvent content ([3]; As is (before storage)): 0.9%
water content ([3]; As is (before storage)): 0.7%
Form conversion ([3]; at 80-100% RH): converts to Amorphous Linezolid
Stability and hygroscopicity ([3]; between 0-60% RH): stable and non-hygroscopic
Hygroscopicity ([3]; on high relative humidity): hygroscopic
SMILES: CC(=O)NC[C@H]1CN(c2ccc(N3CCOCC3)c(F)c2)C(=O)O1 [Form VI, (S)—N-[[3-[3-Fluoro-4-(4-morpholinyl)phenyl]-2-oxo-5-oxazo-lidinyl]methyl]-acetamide]

Solvent content ([4]; 8 days, room temperature, relative humidity 0%): 1.6%
Solvent content ([4]; 8 days, room temperature, relative humidity 20%): 1.5%
Solvent content ([4]; 8 days, room temperature, relative humidity 40%): 1.4%
Solvent content ([4]; 8 days, room temperature, relative humidity 60%): 2.0%
Solvent content ([4]; 8 days, room temperature, relative humidity 80%): 2.4%
Crystal Form [4, 7]: Form X + II
Solvent content [4, 7]: 0.7%
Solvent content ([4]; As is (before storage)): 1.9 (water content 1.9) %
water content ([4]; As is (before storage)): 1.9 (water content 1.9) %
Form conversion ([4]; at 100% RH): some of Form X converts to Form II
Stability ([4]; between 0-80% RH): stable
Crystal form after heating ([2]; heating temp. 60 °C, listed as X): Amorphous
SMILES: CC(=O)NC[C@H]1CN(c2ccc(N3CCOCC3)c(F)c2)C(=O)O1 [Form X, (S)—N-[[3-[3-Fluoro-4-(4-morpholinyl)phenyl]-2-oxo-5-oxazo-lidinyl]methyl]-acetamide]

From patent US20060111350A1, “Solid forms of linezolid and processes for preparation thereof” (priority 2004, published 2006)
